{"source": "patent US10670605B2", "about": "“Cysteine reactive probes and uses thereof” (The Scripps Research Institute, priority 2015, dated 2020)", "key": {"[1]": {"system": "primary human T cells", "assay": "T cell activation markers CD25 and CD69 (flow cytometry)", "type": "cell-based", "details": "2.5 mM, 8 h", "method": "96-well plates were coated with anti-CD3 (1:200; BioXcell) and anti-CD28 (1:500; 302933; BioLegend) in PBS (100 μL/well) overnight at 4° C. The plates were then washed twice with PBS and to each well was added 500,000 primary T cells in 100 μL of RPMI supplemented with 10% FBS, glutamine, and Pen-Strep. Cells were then treated with 100 μL of media containing compound at the indicated concentrations (final well volume of 200 μL). Cells were left at 37° C. in a 5% CO2 incubator for the indicated periods of time and harvested by centrifugation (500 g, 8 min, 4° C.), followed by washing with PBS.\nFlow cytometry analysis of cell surface antigens was performed with the following antibodies: Pacific Blue-conjugated anti-CD8 (1:25 dilution; clone RPA-T8; BD Biosciences), APC-conjugated anti-CD4 (1:25 dilution; clone RPA-T4; eBioscience), phycoerythrin-conjugated anti-CD25 (1:25 dilution; clone BC96; eBioscience or PC61; BioLegend (PKCθ studies)), FITC-conjugated anti-CD69 (1:25 dilution; clone FN50; eBioscience). All antibodies were diluted in 1% FBS in PBS, and 50 μL of the stain solution was added to each well. […] Flow cytometry acquisition was performed with BD FACSDivam-driven BD™ LSR II flow cytometer (Becton, Dickinson and Company). Data was then analyzed with FlowJo software (Treestar Inc.). Data represent mean±SE for four-five experiments per group."}, "[2]": {"system": "intracellular GSH in primary human T cells", "assay": "Quantification of cellular glutathione (GSH) levels", "type": "cell-based", "details": "DMF 50 μM 2 h; BSO 2.5 mM 4 h", "method": "Primary human T cells (2.5 million cells/mL, 20 mL per condition) were treated as indicated, harvested by centrifugation (500 g, 8 min, 4° C.), and washed twice with PBS. To the cell pellet was added 75 μL of lysis buffer. […] Protein concentrations were adjusted to at least 5 mg/mL and the assay performed according to manufacturer's instructions (Sigma-Aldrich, CS 1020). Data represent mean±SE for two biological replicates."}, "[3]": {"system": "Cys residues in primary human T cells", "assay": "isoTOP-ABPP of compound-treated primary human T cells", "type": "cell-based", "details": "MMF 50 μM 4 h; BSO 2.5 mM 4 h"}, "[4]": {"system": "IMPDH2 (C140)", "assay": "Click probe 18 labeling of recombinant IMPDH2 and its competition", "type": "binding, human", "details": "probe 25 μM"}, "[5]": {"system": "protein targets in MDA-MB-231 cells", "assay": "Whole protein capture with click probes (SILAC proteomics), native vs heat denatured", "type": "binding, human", "details": "proteins liganded by parent fragment (3 / 14) and enriched by click probe (19 / 18)", "method": "Protein enrichment by 18 and 19 was measured by whole protein capture of isotopically-SILAC labeled MDA-MB-231 cells using quantitative (SILAC) proteomics."}}}
{"compound": "CCCCS(=N)(=O)CCC(N)C(=O)O", "note": "(centres unmarked) [BSO, buthionine sulfoximine]", "values": [{"measurement": "T cell activation (CD25)", "setting": "[1]", "result": "no effect"}, {"measurement": "cellular GSH content", "setting": "[2]", "result": "Significant reductions"}, {"measurement": "alteration of the ~40 DMF-sensitive Cys residues", "setting": "[3]", "result": "none"}]}
{"compound": "C#CCCCCNC(=O)c1cc(NC(=O)C=C)cc(C(F)(F)F)c1", "note": "[compound 18]", "values": [{"measurement": "direct labeling of IMPDH2 WT and mutants by click probe", "setting": "[4]", "result": "labeled WT-IMPDH2 and a C331S-IMPDH2 mutant, but not the C140S or C140S/C331S mutants"}, {"measurement": "percentage of quantified protein targets sensitive to heat denaturation", "setting": "[5]", "result": 73, "unit": "%"}]}
